# Target: T1, full-length (FL) wild-type (WT) NicA2 (Pseudomonas putida, UniProt F8G0P2)
# T1 construct: full length, C-terminal 6xHis (pET28a), E. coli BL21(DE3); FAD-containing; the assays say only WT NicA2, full length inferred from cloning section
# T1 sequence (F8G0P2 1-482): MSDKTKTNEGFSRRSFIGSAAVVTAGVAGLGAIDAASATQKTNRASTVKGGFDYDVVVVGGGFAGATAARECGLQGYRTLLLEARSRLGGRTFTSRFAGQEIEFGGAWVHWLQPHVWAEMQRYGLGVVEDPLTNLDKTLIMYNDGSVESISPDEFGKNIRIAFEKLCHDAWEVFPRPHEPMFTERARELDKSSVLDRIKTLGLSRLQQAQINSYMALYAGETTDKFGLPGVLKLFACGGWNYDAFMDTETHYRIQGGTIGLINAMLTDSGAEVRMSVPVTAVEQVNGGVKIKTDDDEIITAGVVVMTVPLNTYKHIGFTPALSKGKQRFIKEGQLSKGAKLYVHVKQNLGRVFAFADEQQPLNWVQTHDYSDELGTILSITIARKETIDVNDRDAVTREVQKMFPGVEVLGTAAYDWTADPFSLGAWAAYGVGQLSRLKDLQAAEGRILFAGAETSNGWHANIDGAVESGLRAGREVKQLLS
# Assay: Ni-NTA removal of enzyme, GC of free versus total product
# Format: binding
# Details: 25 °C, 1.5 h, equimolar nicotine; product formed in situ; construct (full length or 21-482) not stated
smiles,measurement,value
CNCCCC(=O)c1cccnc1 [pseudooxynicotine],"Ni-NTA removal of enzyme, GC of free versus total product",only one-fourth of the PN produced in the reaction system was released to solution by NicA2

# Source: publication PMC7468206, “Molecular Deceleration Regulates Toxicant Release to Prevent Cell Damage in Pseudomonas putida S16 (DSM 28022)” (mBio, 2020)
